The assay deals with human endometrial cancer cell strain AN3CA tumor. Description: Anti-tumor effect assay using mouse subcutaneous transplantation model. To be noted: AN3-CA, oral, tumor weight vs negative control, read-out: Anti-tumor effect (tumor growth inhibition rate); for inhibition in vivo at 5 mg/kg/day / inhibition in vivo at 10 mg/kg/day / inhibition in vivo at 2.5 mg/kg/day: 8 or 5 consecutive days depending on compound. The class given is in vivo, female nude mouse. The procedure:
A tumor section was prepared from a human endometrial cancer cell strain AN3CA tumor mass formed in a female nude mouse as a subcutaneously transplanted tumor and then a xenograft model was prepared by transplanting the tumor section into female nude mouse. Tumor-bearing mice having an estimated tumor volume (long diameter×short diameter×short diameter/2) of 80 to 200 mm^3 were divided, so that there should be no significant difference in the mean estimated tumor volume and body weight as compared with the negative control group to perform a test. The test compound was orally administered at a predetermined dose for 8 consecutive days. On the following day of the final administration day, tumor-bearing mice were anesthetized and exsanguinated to death and a tumor mass was isolated to measure tumor weight (the compounds of Examples 1, 3, 6, 8, 11, 12, and 14). Furthermore, as a similar test, the test compound was orally administered for 5 consecutive days, animals were sacrificed on the final administration day, and tumor weight was measured (the compounds of Examples 60, 63, 75, 77, 79, 89, 92, 107, 108, 109, 110, and 127).
In all the tests, anti-tumor effect was calculated by the following formula. {1−(tumor weight in compound treatment group/tumor weight in negative control group)}×100

Molecules are shown by their SMILES.

Consider `C[C@H](O)C(=O)N1CCN(c2nc3c(N4CCOCC4)nc(-c4cnc(N)nc4)nc3n2CC2CC2)C[C@H]1C` [Example 95, (2S)-1-{(2R)-4-[2-(2-Aminopyrimidin-5-yl)-9-(cyclopropylmethyl)-6-morpholin-4-yl-9H-purin-8-yl]-2-methylpiperazin-1-yl}-1-oxopropan-2-ol], for which the inhibition in vivo at 5 mg/kg/day turned out to be 44% and the inhibition in vivo at 10 mg/kg/day amounted to 62%.
`CC(C)Cn1c(N2CCN(C=O)[C@H](C)C2)nc2c(N3CCOCC3)nc(-c3cnc(N)nc3)nc21` [Example 100, (2R)-4-[2-(2-Aminopyrimidin-5-yl)-9-isobutyl-6-morpholin-4-yl-9H-purin-8-yl]-2-methylpiperazine-1-carboaldehyde]: the inhibition in vivo at 2.5 mg/kg/day came to 53% and the inhibition in vivo at 5 mg/kg/day is 62%.
The like results for `CC(=O)N1CCN(c2nc3c(N4CCOCC4)nc(-c4cnc(N)nc4)nc3n2CC(C)C)C[C@@H]1C` [Example 101, 5-{8-[(3S)-4-Acetyl-3-methylpiperazin-1-yl]-9-isobutyl-6-morpholin-4-yl-9H-purin-2-yl}pyrimidin-2-amine] were, in that order, 42% and 69%.
The matching figures for `CC(C)Cn1c(N2CCN(C=O)[C@@H](C)C2)nc2c(N3CCOCC3)nc(-c3cnc(N)nc3)nc21` [Example 102, (2S)-4-[2-(2-Aminopyrimidin-5-yl)-9-isobutyl-6-morpholin-4-yl-9H-purin-8-yl]-2-methylpiperazine-1-carboaldehyde]: 54% and 64%.
Consider `CNc1ncc(-c2nc(N3CCOCC3)c3nc(N4CCN(C(C)=O)[C@@H](C)C4)n(CC(F)(F)F)c3n2)cn1` [Example 107, 5-{8-[(3S)-4-Acetyl-3-methylpiperazin-1-yl]-6-morpholin-4-yl-9-(2,2,2-trifluoroethyl)-9H-purin-2-yl}-N-methylpyrimidin-2-amine], for which the inhibition in vivo at 5 mg/kg/day was 76%. Besides, the inhibition in vivo at 1.25 mg/kg/day (120 h, 1.25 mg/kg/day, 5 consecutive days) turned out to be 46%.
In the case of `CNc1ncc(-c2nc(N3CCOCC3)c3nc(N4CCN(C(C)=O)[C@H](C)C4)n(CC(F)(F)F)c3n2)cn1` [Example 108, 5-{8-[(3R)-4-Acetyl-3-methylpiperazin-1-yl]-6-morpholin-4-yl-9-(2,2,2-trifluoroethyl)-9H-purin-2-yl}-N-methylpyrimidin-2-amine], the inhibition in vivo at 2.5 mg/kg/day amounted to 53% and the inhibition in vivo at 10 mg/kg/day was found to be 82%.
Take `C[C@H](O)C(=O)N1CCN(c2nc3c(N4CCOCC4)nc(-c4cnc(N)nc4)nc3n2CC(F)(F)F)C[C@@H]1C` [Example 109, (2S)-1-{(2S)-4-[2-(2-Aminopyrimidin-5-yl)-6-morpholin-4-yl-9-(2,2,2-trifluoroethyl)-9H-purin-8-yl]-2-methylpiperazin-1-yl}-1-oxopropan-2-ol]: under “120 h, 5 consecutive days”, the inhibition in vivo at 1.875 mg/kg/day stood at 42% and the inhibition in vivo at 7.5 mg/kg/day amounted to 80%.
The matching figures for `C[C@H](O)C(=O)N1CCN(c2nc3c(N4CCOCC4)nc(-c4cnc(N)nc4)nc3n2CC(F)(F)F)C[C@H]1C` [Example 110, (2S)-1-{(2R)-4-[2-(2-Aminopyrimidin-5-yl)-6-morpholin-4-yl-9-(2,2,2-trifluoroethyl)-9H-purin-8-yl]-2-methylpiperazin-1-yl}-1-oxopropan-2-ol]: 43% and 73%.
Turning to `C[C@H]1COCCN1c1nc(-c2cnc(N)nc2)nc2c1nc(N1CCN(S(C)(=O)=O)CC1)n2CC(F)(F)F` [Example 127, 5-{6-[(3S)-3-Methylmorpholin-4-yl]-8-[4-(methylsulfonyl)piperazin-1-yl]-9-(2,2,2-trifluoroethyl)-9H-purin-2-yl}pyrimidin-2-amine], the inhibition in vivo at 5 mg/kg/day was 69% and the inhibition in vivo at 10 mg/kg/day is 79%.

Values taken from US8309546B2, “Morpholinopurine derivatives” (Daiichi Sankyo Company, Limited, priority 2008, dated 2012).
